Test results reported in publication PMC3763632, “Radiosynthesis and Radiotracer Properties of a 7-(2-[^18F]Fluoroethoxy)-6-methoxypyrrolidinylquinazoline for Imaging of Phosphodiesterase 10A with PET” (Pharmaceuticals, 2012).
Several values for one entry are separate records, joined by “and”; a condition that tells them apart may be missing. Equal values may be shown once.

Assay: Biodistribution after i.v. injection
Assay type: in vivo, female CD-1 mice
Method: The organ distribution of [^18F]IV after i.v. injection was investigated in female CD-1 mice. Time-activity data for ^18F corresponding uptake in peripheral organs, in the brain and in particular in the striatum at 5, 30, 60 and 120 min p.i. are presented in Table 2.
Conscious mice received a tail-vein injection of about 300 kBq of [^18F]IV, dissolved in 200 µL isotonic saline. At 5, 30, 60 and 120 min p.i. animals (n = 3–6 per time) were anaesthetized, and blood and urine samples were taken. After sacrifice, organs of interest were removed, separated, weighed, and radioactivity was measured in a calibrated γ-counter (Wallac WIZARD, Perkin Elmer, Waltham, MA, USA). Striatum was dissected from the brain and investigated separately. The percentage of the injected dose per gram of wet tissue (% ID/g) was calculated by the quotient of tissue counts and initial dose counts, and weight of the tissue sample.

Structure (SMILES): COc1cc2c(N3CC[C@@H](Oc4cnc5ccccc5n4)C3)ncnc2cc1OCC[18F] [[^18F]IV, (R)-7-(2-[^18F]Fluoroethoxy)-6-methoxy-4-(3-(quinoxalin-2-yloxy)pyrrolidin-1-yl)quinazoline]
- 18F uptake, Thymus (control, 5 min p.i.): 3.10 ± 0.45 % ID/g Wet Weight
- 18F uptake, Urine (control, 5 min p.i.): 56.4 % ID/g Wet Weight and 56.4 ± 105 % ID/g Wet Weight
- 18F uptake, Bladder (control, 30 min p.i.): 3.51 ± 1.39 % ID/g Wet Weight
- 18F uptake, Blood (control, 30 min p.i.): 1.69 ± 0.38 % ID/g Wet Weight
- 18F uptake, Brain (control, 30 min p.i.): 1.54 ± 0.30 % ID/g Wet Weight
- 18F uptake, Colon (control, 30 min p.i.): 0.88 ± 0.44 % ID/g Wet Weight
- 18F uptake, Femurs (control, 30 min p.i.): 2.14 ± 1.13 % ID/g Wet Weight
- 18F uptake, Femurs (fl.) (flushed) (control, 30 min p.i.): 0.67 ± 0.24 % ID/g Wet Weight
- 18F uptake, Gonads (control, 30 min p.i.): 3.94 ± 0.84 % ID/g Wet Weight
- 18F uptake, Heart (control, 30 min p.i.): 2.93 ± 0.71 % ID/g Wet Weight
- 18F uptake, Intestine (control, 30 min p.i.): 43.2 ± 21.9 % ID/g Wet Weight
- 18F uptake, Kidneys (control, 30 min p.i.): 5.34 ± 1.4 % ID/g Wet Weight
- 18F uptake, Liver (control, 30 min p.i.): 16.4 ± 4.00 % ID/g Wet Weight
- 18F uptake, Lungs (control, 30 min p.i.): 3.51 ± 1.26 % ID/g Wet Weight
- 18F uptake, Muscles (control, 30 min p.i.): 1.31 ± 0.32 % ID/g Wet Weight
- 18F uptake, Pancreas (control, 30 min p.i.): 3.14 ± 0.70 % ID/g Wet Weight
- 18F uptake, Plasma (control, 30 min p.i.): 2.87 ± 0.54 % ID/g Wet Weight
- 18F uptake, Spleen (control, 30 min p.i.): 2.85 ± 0.60 % ID/g Wet Weight
- 18F uptake, Stomach (control, 30 min p.i.): 15.8 ± 6.09 % ID/g Wet Weight
- 18F uptake, Striatum (control, 30 min p.i.): 1.69 ± 0.44 % ID/g Wet Weight
- 18F uptake, Thymus (control, 30 min p.i.): 2.61 ± 0.50 % ID/g Wet Weight
- 18F uptake, Urine (control, 30 min p.i.): 18.5 ± 16.8 % ID/g Wet Weight
- 18F uptake, Adrenals (control, 60 min p.i.): 28.2 ± 11.4 % ID/g Wet Weight
- 18F uptake, Bladder (control, 60 min p.i.): 2.60 ± 0.78 % ID/g Wet Weight
- 18F uptake, Blood (control, 60 min p.i.): 1.45 ± 0.20 % ID/g Wet Weight
- 18F uptake, Brain (control, 60 min p.i.): 1.08 ± 0.26 % ID/g Wet Weight
- 18F uptake, Colon (control, 60 min p.i.): 1.08 ± 0.43 % ID/g Wet Weight
- 18F uptake, Femurs (control, 60 min p.i.): 2.95 ± 3.73 % ID/g Wet Weight
- 18F uptake, Femurs (fl.) (flushed) (control, 60 min p.i.): 0.58 ± 0.42 % ID/g Wet Weight
- 18F uptake, Gonads (control, 60 min p.i.): 3.50 ± 1.22 % ID/g Wet Weight
- 18F uptake, Heart (control, 60 min p.i.): 2.16 ± 0.45 % ID/g Wet Weight
- 18F uptake, Intestine (control, 60 min p.i.): 42.8 % ID/g Wet Weight and 42.8 ± 33.5 % ID/g Wet Weight
- 18F uptake, Kidneys (control, 60 min p.i.): 4.29 ± 0.93 % ID/g Wet Weight
- 18F uptake, Liver (control, 60 min p.i.): 14.5 ± 4.54 % ID/g Wet Weight
- 18F uptake, Lungs (control, 60 min p.i.): 2.37 ± 0.62 % ID/g Wet Weight
- 18F uptake, Muscles (control, 60 min p.i.): 1.22 ± 0.28 % ID/g Wet Weight
- 18F uptake, Pancreas (control, 60 min p.i.): 2.77 ± 0.85 % ID/g Wet Weight
- 18F uptake, Plasma (control, 60 min p.i.): 2.59 ± 0.36 % ID/g Wet Weight
- 18F uptake, Spleen (control, 60 min p.i.): 2.30 ± 0.25 % ID/g Wet Weight
- 18F uptake, Stomach (control, 60 min p.i.): 12.6 ± 5.08 % ID/g Wet Weight
- 18F uptake, Striatum (control, 60 min p.i.): 1.14 ± 0.29 % ID/g Wet Weight
- 18F uptake, Thymus (control, 60 min p.i.): 2.08 ± 0.51 % ID/g Wet Weight
- 18F uptake, Urine (control, 60 min p.i.): 23.1 ± 9.31 % ID/g Wet Weight
- 18F uptake, Skin (control, 60 min p.i., single values, n = 2): 1.45 % ID/g Wet Weight and 1.17 % ID/g Wet Weight
- 18F uptake, Adrenals (control, 120 min p.i.): 19.3 ± 13.2 % ID/g Wet Weight
- 18F uptake, Bladder (control, 120 min p.i.): 1.62 ± 0.28 % ID/g Wet Weight
- 18F uptake, Blood (control, 120 min p.i.): 1.05 ± 0.10 % ID/g Wet Weight
- 18F uptake, Brain (control, 120 min p.i.): 0.77 ± 0.10 % ID/g Wet Weight
- 18F uptake, Colon (control, 120 min p.i.): 3.49 ± 2.41 % ID/g Wet Weight
- 18F uptake, Femurs (control, 120 min p.i.): 1.61 ± 0.35 % ID/g Wet Weight
- 18F uptake, Femurs (fl.) (flushed) (control, 120 min p.i.): 1.15 ± 0.18 % ID/g Wet Weight
- 18F uptake, Gonads (control, 120 min p.i.): 1.64 ± 0.26 % ID/g Wet Weight
- 18F uptake, Heart (control, 120 min p.i.): 1.33 ± 0.20 % ID/g Wet Weight
- 18F uptake, Intestine (control, 120 min p.i.): 49.3 ± 8.03 % ID/g Wet Weight
- 18F uptake, Kidneys (control, 120 min p.i.): 2.13 ± 0.44 % ID/g Wet Weight
- 18F uptake, Liver (control, 120 min p.i.): 7.05 % ID/g Wet Weight and 7.05 ± 1.10 % ID/g Wet Weight
- 18F uptake, Lungs (control, 120 min p.i.): 1.46 ± 0.26 % ID/g Wet Weight
- 18F uptake, Muscles (control, 120 min p.i.): 0.66 ± 0.01 % ID/g Wet Weight
- 18F uptake, Pancreas (control, 120 min p.i.): 1.41 ± 0.07 % ID/g Wet Weight
- 18F uptake, Plasma (control, 120 min p.i.): 2.13 ± 0.80 % ID/g Wet Weight
- 18F uptake, Spleen (control, 120 min p.i.): 1.21 ± 0.24 % ID/g Wet Weight
- 18F uptake, Stomach (control, 120 min p.i.): 10.1 ± 5.96 % ID/g Wet Weight
- 18F uptake, Striatum (control, 120 min p.i.): 0.83 ± 0.10 % ID/g Wet Weight
- 18F uptake, Thymus (control, 120 min p.i.): 1.26 ± 0.07 % ID/g Wet Weight
- 18F uptake, Urine (control, 120 min p.i.): 30.9 % ID/g Wet Weight and 30.9 ± 8.06 % ID/g Wet Weight
- uptake of radioactivity in femur (mice, time not specified): ~ 2 % ID/g
- uptake of radioactivity in femur after removal of bone marrow (mice, time not specified): about 1 % ID/g
